Read-outs that look alike come from different tables or passages of the source.
Assays:
[1] = tubular reactor systems, pre-mixing and aging, in some cases; cited from earlier work
[2] = Catalyst lifetime in isothermal tubular reactor polymerization, first order decay; settings: isothermal 40° C.
[3] = Preparation of polyethylene (batch ethylene polymerization); settings: 1 mmole catalyst, 5 mmoles ethyl aluminum sesquichloride, room temperature, 0.5 hrs
Experimental: In a 1.5 liter reaction vessel was introduced 800 ml of hexane. This was maintained at room temperature and ethylene was slowly bubbled in at the rate of 34 gms/hour. When the solution was saturated, 5 mmoles of Ethyl aluminum sesquichloride was added as a solution in hexane followed by a solution of 1 mmole of the transition metal catalyst compound dissolved in toluene. […] The polymerization was maintained for 0.5 hrs with constant monomer addition. At the end of the polymerization period, the polymerization was terminated by the addition of 5 ml of isopropanol and the polymer was recovered by filtration and dried to constant weight.

[4] = Ethylene/propylene copolymerization in continuous flow stirred tank reactor (catalyst productivity); settings: CFSTR, residence time 11 minutes
Experimental: A series of copolymers based on ethylene and propylene monomers were prepared in a continuous flow stirred tank reactor using the vanadium
The polymerization results as set forth in Table 1 are expressed as polymer made in the reactor in gms per hour.

[5] = Ethylene/propylene copolymerization in tubular reactor (polymerization rate); settings: for Effectiveness in polymerizing ethylene/propylene compared to VCl4 (in words): tubular reactor process; for Polymerization Rate (polymer made in the reactor): tubular reactor, 15° C. at the initial zone, adiabatic, premix 8 sec at 10° C. (Example 12) or -10° C. (all others)
Source text: The polymerization results are shown in Table II and are expressed/as polymer made in the reactor in gms per hour.

[6] = Conversion of vanadium component into active catalyst (tubular reactor, premixing); settings: premixing residence time 8 seconds, temperature varied to maximize conversion
Experimental: The vanadium component attains a maximum conversion to the active catalyst under certain premixing conditions determined by the concentrations of the vanadium and aluminum components and the residence time in the premixing zone and the reaction temperature. The experiment was conducted with identical concentrations of vanadium compound and the same molar ratio of aluminum to vanadium. The premixing experiment was run for the residence time of 8 seconds and the reaction temperature was varied to maximize the conversion of the vanadium component into the active catalyst.

[7] = Copolymerization of norbornene type monomers with ethylene/propylene in CFSTR; settings: 30° C.
Experimental: Polymerization experiments were conducted in a continuous flow stirred tank reactor process wherein norbornene type monomers such as norbornene and 5-ethylidene-2-norbornene (ENB) are copolymerized employing the invention catalysts. The polymerization was conducted under the following conditions:
Ethyl aluminum sesquichloride:
Tetraethoxysilane at .208 gms/hr

[8] = tubular reactor
[9] = Condition A: no norbornene monomer
[10] = Condition B: Norbornene at 10.3 gms/hr
[11] = Condition C: Norbornene at 20.6 gms/hr
[12] = Condition D: ENB at 12.4 gms/hr + Tetraethoxysilane at .208 gms/hr

Half-Life at 40° C. [8] [s]	Compound	Deactivation of catalyst formed, based on the moles of the initial vanadium compound added [1]	Half-Life at 40° C. [2] [s]	Wt of PE [3] [GMS]	Catalyst Productivity at Specified Temperature (polymer made in the reactor) ([4]; 30° C.) [gms per hour]	Catalyst Productivity at Specified Temperature (polymer made in the reactor) ([4]; 45° C.) [gms per hour]	Catalyst Productivity at Specified Temperature (polymer made in the reactor) ([4]; 60° C.) [gms per hour]	Effectiveness in polymerizing ethylene/propylene compared to VCl4 (in words) [5]	Polymerization Rate (polymer made in the reactor) [5] [gms per hour]	Catalyst Conv % (percentage of vanadium converted to the active catalyst at maximum) [6] [%]	Polymerization rate [7, 9] [gms/hr]	Polymerization rate [7, 10] [gms/hr]	Polymerization rate [7, 11] [gms/hr]	Polymerization rate [7, 12] [gms/hr]
	Tetra chloro vanadium (+4) [Catalyst Code 0, reference compound]	up to 55 mole percent	2.5											
	Hexanoate Salicaldehyde mono chloro vanadium (+3) [Catalyst Code 4]		10.0	15.0	90	73	56							
	Bis hexanoate mono chloro vanadium (+3) [Catalyst Code 1]		19.8	13.9	95	68	58	significantly more effective than VCL4 in polymerizing ethylene/propylene monomers	832	67	171	171	168	160
	CC(=O)C=C(C)[O-].CCCCCC(=O)[O-].[Cl-].[V+3] [Catalyst Code 3, Hexanoate (2,4-Pentanedionate) mono chloro vanadium (+3)]		13.8	15.0	87	64	51	significantly more effective than VCL4 in polymerizing ethylene/propylene monomers	891	75	165	178	164	165
11.6	CC(=O)C=C(C)[O][V]([Cl])[O]C(C)=CC(C)=O [Catalyst Code 2, Bis (2,4-pentanedionate) mono chloro vanadium (+3)]			14.3	92	64	51	significantly more effective than VCL4 in polymerizing ethylene/propylene monomers	878	72	169	164	159	152
	Bis hexanoate mono chloro titanium [Catalyst Code 5]			13.5										

Source: patent publication US5021595A, “Transition metal catalyst composition for olefin polymerization” (Exxon Chemical Patents Inc., priority 1990, dated 1991)
